Data taken from ChEMBL document CHEMBL5036306 (J Med Chem, 2021).
Activity calls are given as the source filed them. No cut-off for these calls is given here.

Key:
[1] = target: T1, Protein deacetylase HDAC6 (Homo sapiens, UniProt Q9UBN7); experiment: Inhibition of recombinant HDAC6 (unknown origin) using Boc-Lys(acetyl)-AMC as substrate preincubated for 1 hr followed by substrate addition and measured after 2 hrs by fluorescence based assay
T1 sequence (Q9UBN7 whole entry): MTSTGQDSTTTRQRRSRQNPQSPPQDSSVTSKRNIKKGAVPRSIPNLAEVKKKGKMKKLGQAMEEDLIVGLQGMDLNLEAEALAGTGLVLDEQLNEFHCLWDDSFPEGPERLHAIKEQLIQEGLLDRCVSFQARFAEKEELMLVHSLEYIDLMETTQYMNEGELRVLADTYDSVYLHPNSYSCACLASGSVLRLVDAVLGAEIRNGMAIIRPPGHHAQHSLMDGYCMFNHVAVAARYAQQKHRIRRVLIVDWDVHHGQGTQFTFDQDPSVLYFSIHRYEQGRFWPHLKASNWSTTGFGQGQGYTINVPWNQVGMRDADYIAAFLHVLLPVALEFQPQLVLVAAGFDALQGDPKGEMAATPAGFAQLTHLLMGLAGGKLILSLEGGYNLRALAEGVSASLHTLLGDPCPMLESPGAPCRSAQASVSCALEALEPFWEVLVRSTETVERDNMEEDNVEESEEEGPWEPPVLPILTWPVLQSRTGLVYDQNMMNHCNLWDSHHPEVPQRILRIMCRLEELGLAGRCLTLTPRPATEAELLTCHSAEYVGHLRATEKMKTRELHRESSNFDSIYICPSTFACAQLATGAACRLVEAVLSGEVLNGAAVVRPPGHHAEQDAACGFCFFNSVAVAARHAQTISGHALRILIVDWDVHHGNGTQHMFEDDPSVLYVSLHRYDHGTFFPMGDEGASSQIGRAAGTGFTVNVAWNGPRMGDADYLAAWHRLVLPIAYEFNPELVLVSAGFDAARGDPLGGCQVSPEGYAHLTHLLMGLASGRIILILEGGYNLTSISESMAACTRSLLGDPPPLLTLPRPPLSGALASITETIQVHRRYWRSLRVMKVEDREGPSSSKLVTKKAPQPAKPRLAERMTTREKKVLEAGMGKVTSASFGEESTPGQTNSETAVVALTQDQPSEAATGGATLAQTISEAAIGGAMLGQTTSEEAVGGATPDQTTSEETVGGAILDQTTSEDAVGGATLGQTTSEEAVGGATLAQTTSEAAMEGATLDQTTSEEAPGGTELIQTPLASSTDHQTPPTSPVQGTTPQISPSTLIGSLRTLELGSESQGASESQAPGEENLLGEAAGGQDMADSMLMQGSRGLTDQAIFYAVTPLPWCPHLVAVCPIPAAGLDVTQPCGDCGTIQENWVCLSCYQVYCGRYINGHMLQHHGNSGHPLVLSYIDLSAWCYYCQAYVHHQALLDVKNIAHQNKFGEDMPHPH

[2] = Toxicity in mouse model of Alzheimer's disease assessed as drug tolerability at 0.3 to 3 mg/kg, ip measured after 7 days; assay type: organism-based; settings: in vivo, 168 h, dose 0.3-3 mg/kg, time 7 day
[3] = species: Homo sapiens; experiment: Selectivity ratio of IC50 for recombinant HDAC8 (unknown origin) to IC50 for recombinant HDAC6 (unknown origin)
[4] = system: N9; experiment: Immunomodulatory activity in LPS-induced mouse N9 microglial cells assessed as increase in TREM2 expression at 0.1 to 5 uM incubated for 24 hrs by Western blot analysis; assay type: functional; settings: dose 0.1-5 µM
[5] = system: N9; experiment: Immunomodulatory activity in mouse N9 microglial cells assessed as reduction in LPS-induced IL1beta level incubated for 24 hrs by colorimetric assay; assay type: functional, cell-based; settings: dose 0.1-5 µM
[6] = system: N9; experiment: Immunomodulatory activity in LPS-induced mouse N9 microglial cells assessed as increase in TGF-beta2 expression at 0.1 to 5 uM incubated for 24 hrs by Western blot analysis; assay type: functional; settings: dose 0.1-5 µM
[7] = system: Mus musculus; experiment: Neuroprotection against mouse model of Alzheimer's disease at 1 mg/kg; assay type: functional, organism-based
[8] = system: Mus musculus; experiment: Anti-alzheimer activity against amyloid beta (25 to 35) induced working memory deficit mouse assessed as step-through latency time to enter dark compartment at 0.1 to 0.3 mg/kg, ip administered for 7 days and measured on day 9 days by passive avoidance test; assay type: functional, organism-based; settings: dose 0.1-0.3 mg/kg, time 9.0 day
[9] = species: Homo sapiens; experiment: Selectivity ratio of IC50 for recombinant HDAC3 (unknown origin) to IC50 for recombinant HDAC6 (unknown origin)
[10] = target: Histone deacetylase 3 (Homo sapiens, UniProt O15379); experiment: Inhibition of recombinant HDAC3 (unknown origin) using Boc-Lys(acetyl)-AMC as substrate preincubated for 1 hr followed by substrate addition and measured after 2 hrs by fluorescence based assay
[11] = Metal chelating activity assessed as compound-Cu2+ complex formation at 10 to 200 uM incubated for 2 mins followed by pyrocatechol violet addition and further incubated for 10 mins by microplate reader based assay; settings: dose 10-200 µM, time 12.0 min
[12] = system: N9; experiment: Immunomodulatory activity in mouse N9 microglial cells assessed as reduction in LPS-induced iNOS expression incubated for 24 hrs by Western blot analysis; assay type: functional, cell-based; settings: dose 0.1-5 µM
[13] = system: Mus musculus; experiment: Anti-alzheimer activity against amyloid beta (25 to 35) induced working memory deficit in mouse assessed as increase in spontaneous alternation performance at 0.3 to 1 mg/kg, ip administered for 7 days and measured on day 8 by Y-maze test; assay type: functional, organism-based; settings: dose 0.3-1 mg/kg, time 8.0 day
[14] = system: Mus musculus; experiment: Anti-alzheimer activity against amyloid beta (25 to 35) induced working memory deficit mouse assessed as step-through latency time to enter dark compartment at 1 mg/kg, ip administered for 7 days and measured on day 9 days by passive avoidance test; assay type: functional, organism-based; settings: time 9.0 day

Sequence of Histone deacetylase 3 (O15379 whole entry): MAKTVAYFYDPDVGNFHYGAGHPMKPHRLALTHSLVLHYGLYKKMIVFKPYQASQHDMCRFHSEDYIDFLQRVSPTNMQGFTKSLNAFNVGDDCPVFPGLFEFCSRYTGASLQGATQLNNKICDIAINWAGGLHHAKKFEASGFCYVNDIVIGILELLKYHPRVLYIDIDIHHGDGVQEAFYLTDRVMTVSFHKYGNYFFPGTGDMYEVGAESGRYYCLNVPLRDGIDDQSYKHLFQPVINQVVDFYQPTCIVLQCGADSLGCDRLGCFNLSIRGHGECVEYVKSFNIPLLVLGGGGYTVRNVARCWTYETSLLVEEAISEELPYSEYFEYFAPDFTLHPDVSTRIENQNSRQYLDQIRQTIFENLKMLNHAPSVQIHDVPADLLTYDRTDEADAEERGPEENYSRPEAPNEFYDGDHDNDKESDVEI

IC50 [1] [nM] | Ratio IC50 [3] | Ratio IC50 [9] | IC50 [10] [nM] | Activity [11] | SMILES | Activity [2] | Activity [4] | Activity [5] | Activity [6] | Activity [7] | Activity [8] | Activity [12] | Activity [13] | Activity [14]
30.7 | 117 | 53 | 1610 | Active | COc1ccc2[nH]cc(CCN(Cc3ccc(C(=O)NO)cc3)C(=O)/C=C/c3ccc(O)c(OC)c3)c2c1 | Non-Toxic | Active | Dose-Dependent Effect | Active | Active | Active | Dose-Dependent Effect | Active | inactive
11.2 | 75 | 57 | 641 | Active | COc1ccc2c(c1)c(CCNC(C)=O)cn2Cc1ccc(C(=O)NO)cc1 |  | inactive |  | inactive |  |  |  |  | 
